Test results published in ChEMBL document CHEMBL1201862, “PubChem BioAssay data set” (2004).
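Exposure lasted 48 hours, with cells grown in 96-well plates and compounds tested at five concentrations. Abbreviation: GI50, concentration required for 50% inhibition of growth.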 Calls of active or inactive are those of the source. No stated cut-off is given here; in the data, active = GI50 up to about 1.1 µM and inactive = higher.

Columns and labels:
Experiment in all cases: NCI tumour cell line growth inhibition, 48 h
786-0 = tested on: 786-0
K562 = tested on: K562
HCT-116 = tested on: HCT-116
SNB-19 = tested on: SNB-19
A498 = tested on: A498
NCI-H23 = tested on: NCI-H23
HOP-62 = tested on: HOP-62
SK-MEL-28 = tested on: SK-MEL-28
HL-60 = tested on: HL-60
ACHN = tested on: ACHN
M14 = tested on: M14
CAKI-1 = tested on: CAKI-1
HCC 2998 = tested on: HCC 2998
MDA-N = tested on: MDA-N
IGROV-1 = tested on: IGROV-1
OVCAR-3 = tested on: OVCAR-3
TK-10 = tested on: TK-10
SF-295 = tested on: SF-295
HT-29 = tested on: HT-29

Row | SMILES | GI50 (786-0) | GI50 (K562) | GI50 (HCT-116) | GI50 (SNB-19) | GI50 (A498) | GI50 (NCI-H23) | GI50 (HOP-62) | GI50 (SK-MEL-28) | GI50 (HL-60) | GI50 (ACHN) | GI50 (M14) | GI50 (CAKI-1) | GI50 (HCC 2998) | GI50 (MDA-N) | GI50 (IGROV-1) | GI50 (OVCAR-3) | GI50 (TK-10) | GI50 (SF-295) | GI50 (HT-29)
1 | c1ccc2c[n+](CCCCCCCCCC[n+]3ccc4ccccc4c3)ccc2c1 | > 10 µM (inactive) | 2.04 µM (inactive) | > 10 µM (inactive) | > 10 µM (inactive) | > 10 µM (inactive) | 1 µM (active) | > 10 µM (inactive) | 7.43 µM (inactive) | > 10 µM (inactive) | > 10 µM (inactive) | > 10 µM (inactive) | > 10 µM (inactive) | > 10 µM (inactive) | > 10 µM (inactive) | > 10 µM (inactive) | > 4.35 µM (inactive) | > 10 µM (inactive) | 3.59 µM (inactive) | > 5.37 µM (inactive)
2 | COc1ccc(NC2Oc3cc4c(cc3C(c3cc(OC)c(OC)c(OC)c3)C2C)OCO4)cc1 (configuration not stated) | 0.544 µM (active) | 0.223 µM (active) | 0.364 µM (active) | 0.607 µM (active) | 0.316 µM (active) | 0.847 µM (active) | 0.294 µM (active) | 1.32 µM (inactive) | 0.248 µM (active) | 0.897 µM (active) | 0.294 µM (active) | 0.51 µM (active) | 0.738 µM (active) | 0.0811 µM (active) | 0.771 µM (active) | 0.255 µM (active) | 5.33 µM (inactive) | 0.268 µM (active) | 0.365 µM (active)
3 | Oc1nc2c(c(-c3ccc(Br)cc3)n1)COC/C2=C\c1ccc(Br)cc1 | > 50 µM (inactive) | > 50 µM (inactive) | > 50 µM (inactive) | > 50 µM (inactive) | > 50 µM (inactive) | > 50 µM (inactive) | > 50 µM (inactive) | > 50 µM (inactive) | > 50 µM (inactive) | > 50 µM (inactive) | > 50 µM (inactive) | > 50 µM (inactive) | > 50 µM (inactive) | > 50 µM (inactive) | > 50 µM (inactive) | > 50 µM (inactive) | > 50 µM (inactive) | > 50 µM (inactive) | > 50 µM (inactive)
4 | COC1CCC(O)C(/C=C/[N+](=O)[O-])C1 (configuration not stated) | 1.7 µM (inactive) | 3.03 µM (inactive) | 1.93 µM (inactive) | 11.5 µM (inactive) | 3.99 µM (inactive) | 3.91 µM (inactive) | 5.41 µM (inactive) | 13.4 µM (inactive) | 1.8 µM (inactive) | 15.7 µM (inactive) | 2.68 µM (inactive) | 16.2 µM (inactive) | 1.7 µM (inactive) | 1.99 µM (inactive) | 1.66 µM (inactive) | 8.3 µM (inactive) | 4.72 µM (inactive) | 10.6 µM (inactive) | 3.37 µM (inactive)
5 | CC(C)=CCC[C@]1(C)CC[C@]2(C)C3CCC(=C(C)C)[C@@H](CCCO)[C@]3(C)CC[C@@]2(C)C1 (some centres not stated) | 32.4 µM (inactive) | – | 36.7 µM (inactive) | > 100 µM (inactive) | > 100 µM (inactive) | 84.9 µM (inactive) | 88.5 µM (inactive) | > 100 µM (inactive) | 33.8 µM (inactive) | 83 µM (inactive) | 30.3 µM (inactive) | 95.7 µM (inactive) | 25.5 µM (inactive) | 89.3 µM (inactive) | 18.8 µM (inactive) | 47.1 µM (inactive) | 20.2 µM (inactive) | 43.1 µM (inactive) | 40.2 µM (inactive)
6 | CC(=O)OC12c3ccccc3C(c3ccccc31)C1C(=O)N(Nc3ccccc3)C(=O)C12 (configuration not stated) | > 100 µM (inactive) | > 100 µM (inactive) | > 100 µM (inactive) | > 100 µM (inactive) | > 100 µM (inactive) | > 100 µM (inactive) | > 100 µM (inactive) | > 100 µM (inactive) | > 100 µM (inactive) | > 100 µM (inactive) | > 100 µM (inactive) | > 100 µM (inactive) | > 100 µM (inactive) | > 100 µM (inactive) | > 100 µM (inactive) | > 100 µM (inactive) | > 100 µM (inactive) | > 100 µM (inactive) | > 100 µM (inactive)
7 | Clc1ccc(CCN[C@H]2CCCC[C@H]2N2CCCC2)cc1Cl | 24 µM (inactive) | 24.2 µM (inactive) | 19.5 µM (inactive) | 25.9 µM (inactive) | 15.8 µM (inactive) | 23.8 µM (inactive) | 20 µM (inactive) | 28.9 µM (inactive) | 20.1 µM (inactive) | 38.6 µM (inactive) | 15.3 µM (inactive) | 27.4 µM (inactive) | 8.24 µM (inactive) | 16.2 µM (inactive) | 16.8 µM (inactive) | 19.6 µM (inactive) | 7.19 µM (inactive) | 16 µM (inactive) | 9.1 µM (inactive)
8 | COC(=O)/C=C/C1(O)C=CC(=O)C=C1 | 2.23 µM (inactive) | 3.15 µM (inactive) | 1.88 µM (inactive) | 3.83 µM (inactive) | 26.9 µM (inactive) | 3.31 µM (inactive) | 4.37 µM (inactive) | 3.44 µM (inactive) | 2.38 µM (inactive) | 2.1 µM (inactive) | 1.79 µM (inactive) | 1.41 µM (inactive) | 7.52 µM (inactive) | 1.89 µM (inactive) | 2.69 µM (inactive) | 2.17 µM (inactive) | 5.37 µM (inactive) | 11 µM (inactive) | 2.51 µM (inactive)
9 | CC(=O)OC[C@H]1On2nnnc2[C@H](OC(C)=O)[C@@H](OC(C)=O)[C@@H]1OC(C)=O | > 100 µM (inactive) | > 100 µM (inactive) | > 100 µM (inactive) | – | > 100 µM (inactive) | > 100 µM (inactive) | > 100 µM (inactive) | > 100 µM (inactive) | > 100 µM (inactive) | > 100 µM (inactive) | – | > 100 µM (inactive) | > 100 µM (inactive) | > 100 µM (inactive) | > 100 µM (inactive) | > 100 µM (inactive) | 31 µM (inactive) | > 100 µM (inactive) | > 100 µM (inactive)
10 | c1c[nH]c(-c2ccc(-c3ccc[nH]3)c3nsnc23)c1 | > 39.1 µM (inactive) | > 26.8 µM (inactive) | > 45.9 µM (inactive) | > 67.6 µM (inactive) | > 76.6 µM (inactive) | 0.0348 µM (active) | 28.5 µM (inactive) | > 69.5 µM (inactive) | 73.8 µM (inactive) | > 52.6 µM (inactive) | > 46.9 µM (inactive) | > 66.7 µM (inactive) | 0.456 µM (active) | > 70.1 µM (inactive) | 20.3 µM (inactive) | 11.3 µM (inactive) | 0.182 µM (active) | > 58.1 µM (inactive) | > 26.3 µM (inactive)
11 | CN(C(=O)C12C3C4C1C1C2C3C41C(=O)O)C(C)(C)C (configuration not stated) | > 100 µM (inactive) | > 100 µM (inactive) | > 100 µM (inactive) | > 100 µM (inactive) | > 100 µM (inactive) | > 100 µM (inactive) | > 100 µM (inactive) | > 100 µM (inactive) | > 100 µM (inactive) | > 100 µM (inactive) | > 100 µM (inactive) | > 100 µM (inactive) | > 100 µM (inactive) | > 100 µM (inactive) | > 100 µM (inactive) | > 100 µM (inactive) | > 100 µM (inactive) | > 100 µM (inactive) | > 100 µM (inactive)
12 | COc1ccccc1NCc1cccc2c(=O)c3ccc(Cl)cc3oc12 | > 100 µM (inactive) | 47.1 µM (inactive) | > 100 µM (inactive) | 92.7 µM (inactive) | > 100 µM (inactive) | 59.3 µM (inactive) | > 100 µM (inactive) | > 100 µM (inactive) | 22.9 µM (inactive) | > 100 µM (inactive) | > 100 µM (inactive) | > 100 µM (inactive) | > 100 µM (inactive) | 93.8 µM (inactive) | 56 µM (inactive) | 35.8 µM (inactive) | > 100 µM (inactive) | > 100 µM (inactive) | 46.6 µM (inactive)
13 | COc1ccc2c(-c3csc(-c4c[nH]c5ccccc45)n3)c[nH]c2c1 | 5.53 µM (inactive) | 3.44 µM (inactive) | 3.68 µM (inactive) | 13.2 µM (inactive) | 8.65 µM (inactive) | 11.6 µM (inactive) | 16.8 µM (inactive) | 14.6 µM (inactive) | 4.66 µM (inactive) | 5.48 µM (inactive) | 7.76 µM (inactive) | 12.1 µM (inactive) | 4.03 µM (inactive) | 8.73 µM (inactive) | 5.58 µM (inactive) | 13.9 µM (inactive) | 9.2 µM (inactive) | 9.64 µM (inactive) | 2.34 µM (inactive)
14 | CN(C)CCC(C#N)(c1ccccc1)c1ccccc1 | > 100 µM (inactive) | 4.06 µM (inactive) | 72.6 µM (inactive) | > 100 µM (inactive) | 71.3 µM (inactive) | > 100 µM (inactive) | > 100 µM (inactive) | 23.1 µM (inactive) | 6.62 µM (inactive) | > 100 µM (inactive) | 25.9 µM (inactive) | > 100 µM (inactive) | 17.5 µM (inactive) | 45 µM (inactive) | 55.1 µM (inactive) | > 100 µM (inactive) | 60.1 µM (inactive) | 90.6 µM (inactive) | 33.7 µM (inactive)
15 | O=c1c(C(c2cccnc2)c2c(O)oc3cc(O)ccc3c2=O)c(O)oc2cc(O)ccc12 | > 100 µM (inactive) | > 100 µM (inactive) | > 100 µM (inactive) | > 100 µM (inactive) | > 100 µM (inactive) | > 100 µM (inactive) | > 100 µM (inactive) | > 100 µM (inactive) | > 100 µM (inactive) | > 100 µM (inactive) | > 100 µM (inactive) | > 100 µM (inactive) | > 100 µM (inactive) | > 100 µM (inactive) | > 100 µM (inactive) | > 100 µM (inactive) | > 100 µM (inactive) | > 100 µM (inactive) | > 100 µM (inactive)
